Common to all, as to format: cell-based
The target of experiment [1] is T1, CDK6 (Homo sapiens, UniProt Q00534).
T1 construct: endogenous in cells
Description: CDK6 degradation (DC50, Dmax).

Experiment [2] deals with T2, CDK4 (Homo sapiens, UniProt P11802).
T2 construct: endogenous in cells
Description: CDK4 degradation (DC50, Dmax).

The subject of experiment [3] is mantle cell lymphoma cell (Mino or JeKo-1). Description: Antiproliferative effect, MTS cell viability assay. The following applies: 72 h; for IC50: mantle cell lymphoma cell (Mino or JeKo-1), MTS assay, read-out: IC50 (anti-proliferation); for inhibition of cell proliferation of Mino cells: 0-1 μM, result in words. A digest of the protocol: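 Mino cells treated with compounds at 0, 0.0001, 0.001, 0.01, 0.1, 1 μM for 72 h; palbociclib and abemaciclib as positive controls. Viability by MTS, formazan absorbance read at 490 nm.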

T1 sequence (Q00534 whole entry): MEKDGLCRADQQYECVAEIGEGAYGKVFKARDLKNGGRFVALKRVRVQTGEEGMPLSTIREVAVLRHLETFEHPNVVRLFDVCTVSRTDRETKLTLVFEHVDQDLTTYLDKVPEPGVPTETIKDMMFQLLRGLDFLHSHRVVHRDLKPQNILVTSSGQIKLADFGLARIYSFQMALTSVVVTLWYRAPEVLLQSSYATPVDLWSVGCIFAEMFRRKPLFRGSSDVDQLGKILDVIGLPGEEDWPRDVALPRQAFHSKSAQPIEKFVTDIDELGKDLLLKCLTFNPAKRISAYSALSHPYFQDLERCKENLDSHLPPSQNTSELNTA
T2 sequence (P11802 whole entry): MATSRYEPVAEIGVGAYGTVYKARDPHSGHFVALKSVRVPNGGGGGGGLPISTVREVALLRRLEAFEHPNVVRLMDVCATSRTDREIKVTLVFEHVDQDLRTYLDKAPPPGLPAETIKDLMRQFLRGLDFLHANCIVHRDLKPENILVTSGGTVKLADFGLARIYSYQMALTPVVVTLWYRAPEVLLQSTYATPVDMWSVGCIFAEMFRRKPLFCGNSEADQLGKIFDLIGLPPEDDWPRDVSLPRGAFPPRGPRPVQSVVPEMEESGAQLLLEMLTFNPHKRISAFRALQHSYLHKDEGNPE

As a reminder, the DC50 is the concentration giving 50% degradation. For orientation: Dmax means the largest share of the target that was removed. Low readings indicate a partial loss of target, high ones a fuller loss of target. As for `Cc1nc2c(F)cc(-c3nc(Nc4ccc(CN5CCN(C6CN(c7ccc(C(=O)NC8CCC(=O)NC8=O)cc7)C6)CC5)cn4)ncc3F)cc2n1C(C)C` (stereo not drawn) [Compound 96, N-(2,6-dioxopiperidin-3-yl)-4-(3-(4-((6-((5-fluoro-4-(4-fluoro-1-isopropyl-2-methyl-1H-benzo[d]imidazol-6-yl)pyrimidin-2-yl)amino)pyridin-3-yl)methyl)piperazin-1-yl)azetidin-1-yi)benzamide], in experiment [1], the DC50 was under 50 nM and the Dmax was over 80%. In addition, in experiment [2], the half-maximal degradation concentration (DC50) is under 50 nM and the Dmax is over 80%. The IC50 in experiment [3] was under 50 nM.
In experiment [1], `Cc1nc2c(F)cc(-c3nc(Nc4ccc(CN5CCN(C6CN(c7ccc8c(c7)CN(C7CCC(=O)NC7=O)C8=O)C6)CC5)cn4)ncc3F)cc2n1C(C)C` (stereo not drawn) [Compound 97, 3-(5-(3-(4-((6-((5-fluoro-4-(4-fluoro-1-isopropyl-2-methyl-1H-benzo[d]imidazol-6-yl)pyrimidin-2-yl)amino)pyridin-3-yl)methyl)piperazin-1-yl)azetidin-1-yl)-1-oxoisoindolin-2-yl)piperidine-2,6-dione] yielded a DC50 of under 50 nM and a Dmax of over 80%. Besides, in experiment [2], the DC50 is under 50 nM and the greatest degradation seen (Dmax) is over 80%. Besides, the IC50 in experiment [3] is under 50 nM.
As for `Cc1nc2c(F)cc(-c3nc(Nc4ccc(CN5CCN(C6CN(c7cccc8c7C(=O)N(C7CCC(=O)NC7=O)C8=O)C6)CC5)cn4)ncc3F)cc2n1C(C)C` (stereo not drawn) [Compound 98, 2-(2,6-dioxopiperidin-3-yl)-4-(3-(4-((6-((5-fluoro-4-(4-fluoro-1 isopropyl-2-methyl-1H-benzo[d]imidazol-6-yl)pyrimidin-2-yl)amino)pyridin-3-yl)methyl)piperazin-1-yl)azetidin-1-yl)isoindoline-1,3-dione], the DC50 in experiment [1] and in experiment [2] was 50 to 200 nM each time. Also, the greatest degradation seen (Dmax) in experiment [1] and in experiment [2] was over 80% throughout. Besides, in experiment [3], the IC50 lay within 50 to 200 nM.
Turning to `Cc1nc2c(F)cc(-c3nc(Nc4ccc(CN5CCN(C6CN(c7cccc8c7CN(C7CCC(=O)NC7=O)C8=O)C6)CC5)cn4)ncc3F)cc2n1C(C)C` (stereo not drawn) [Compound 99, 3-(4-(3-(4-((6-((5-fluoro-4-(4-fluoro-1-isopropyl-2-methyl-1H-benzo[d]imidazol-6-yl)pyrimidin-2-yl)amino)pyridin-3-yl)methyl)piperazin-1-yl)azetidin-1-yl)-1-oxoisoindolin-2-yl)piperidine-2,6-dione], in experiment [1], the DC50 lay within 50 to 200 nM and the Dmax was over 60%. In experiment [2], the DC50 is 50 to 200 nM and the Dmax is over 60%. Besides, in experiment [3], the IC50 lay in the range of 50 to 200 nM.
In experiment [1], `Cc1nc2c(F)cc(-c3nc(Nc4ccc(CN5CCN(CCCNc6cccc7c6C(=O)N(C6CCC(=O)NC6=O)C7=O)CC5)cn4)ncc3F)cc2n1C(C)C` (stereo not drawn) [Compound 100, 2-(2,6-dioxopiperidin-3-yl)-4-((3-(4-((6-((5-fluoro-4-(4-fluoro-1 isopropyl-2-methyl-1H-benzo[d]imidazol-6-yl)pyrimidin-2-yl)amino)pyridin-3-yl)methyl)piperazin-1-yl)propyl)amino) isoindoline-1,3-dione] showed a DC50 of 50 to 200 nM and a Dmax of over 80%. Moreover, in experiment [2], the DC50 was 50 to 200 nM and the Dmax is over 80%. Also, in experiment [3], the IC50 is under 50 nM and the “inhibition of cell proliferation of Mino cells” value is given as “dose-dependent inhibition of cell proliferation”.
Take `Cc1nc2c(F)cc(-c3nc(Nc4ccc(CN5CCN(c6cccc7c6C(=O)N(C6CCC(=O)NC6=O)C7=O)CC5)cn4)ncc3F)cc2n1C(C)C` (stereo not drawn) [Compound 101, 2-(2,6-dioxopiperidin-3-yl)-4-(4-((6-((5-fluoro-4-(4-fluoro-1-isopropyl-2-methyl-1H-benzo[d]imidazol-6-yl)pyrimidin-2-yl)amino)pyridin-3-yl)methyl)piperazin-1-yl)isoindoline-1,3-dione]: in experiment [1], the DC50 lay in the range of 50 to 200 nM and the Dmax is over 80%. Further, in experiment [2], the DC50 lay in the range of 50 to 200 nM and the Dmax was over 60%. Moreover, the IC50 in experiment [3] was in the range of 50 to 200 nM.
In experiment [1], `CC(=O)c1c(C)c2cnc(Nc3ccc(N4CCN(C5CN(c6ccc(C(=O)NC7CCC(=O)NC7=O)cc6)C5)CC4)cn3)nc2n(C2CCCC2)c1=O` (stereo not drawn) [Compound 102, 4-(3-(4-(6-((6-acetyl-8-cyclopentyl-5-methyl-7-oxo-7,8-dihydropyrido[2,3-d]pyrimidin-2-yl)amino)pyridin-3-yl)piperazin-1-yl)azetidin-1-yl)-N-(2,6-dioxopiperidin-3-yl)benzamide] returned a DC50 of 50 to 200 nM and a Dmax of over 60%. For the same compound, in experiment [2], the DC50 was 50 to 200 nM and the Dmax was over 80%. The IC50 in experiment [3] is 50 to 200 nM.
As to `CC(=O)c1c(C)c2cnc(Nc3ccc(N4CCN(CCCN(C)c5cccc6c5C(=O)N(C5CCC(=O)NC5=O)C6=O)CC4)cn3)nc2n(C2CCCC2)c1=O` (stereo not drawn) [Compound 103, 4-((3-(4-(6-((6-acetyl-8-cyclopentyl-5-methyl-7-oxo-7,8-dihydropyrido[2,3-d]pyrimidin-2-yl)amino)pyridin-3-yl)piperazin-1-yl)propyl)(methyl)amino)-2-(2,6-dioxopiperidin-3-yl) isoindoline-1,3-dione], in experiment [1], the DC50 was 50 to 200 nM and the Dmax is over 60%. In experiment [2], this compound gave a DC50 of 50 to 200 nM and a Dmax of over 60%. In experiment [3], the IC50 is under 50 nM and the “inhibition of cell proliferation of Mino cells” value was “dose-dependent inhibition of cell proliferation”.
Turning to `CC(=O)c1c(C)c2cnc(Nc3ccc(N4CCN(CCCNc5ccc(N6CCC(=O)NC6=O)cc5)CC4)cn3)nc2n(C2CCCC2)c1=O` [Compound 105, 1-(4-((3-(4-(6-((6-acetyl-8-cyclopentyl-5-methyl-7-oxo-7,8-dihydropyrido[2,3-d]pyrimidin-2-yl)amino)pyridin-3-yl)piperazin-1-yl)propyl)amino)phenyl)dihydro-pyrimidine-2,4 (1H,3H)-dione], the DC50 in experiment [1] and in experiment [2] was under 50 nM throughout. Besides, the Dmax in experiment [1] and in experiment [2] was over 80% in each case. Moreover, the IC50 in experiment [3] is under 50 nM.
As to `Cc1nc2c(F)cc(-c3nc(Nc4ccc(CN5CCN(CC6CN(c7ccc(N8CCC(=O)NC8=O)cc7)C6)CC5)cn4)ncc3F)cc2n1C(C)C` [Compound 106, 1-(4-(3-((4-((6-((5-fluoro-4-(4-fluoro-1-isopropyl-2-methyl-1H-benzo[d]imidazol-6-yl)pyrimidin-2-yl)amino)pyridin-3-yl)methyl)piperazin-1-yl)methyl)azetidin-1-yl)phenyl) dihydropyrimidine-2,4(1H,3H)-dione], in experiment [1], the DC50 is under 50 nM and the Dmax is over 80%. In experiment [2], this compound showed a DC50 of under 50 nM and a Dmax of over 80%. The IC50 in experiment [3] is under 50 nM.
In experiment [1], `Cc1nc2c(F)cc(-c3nc(Nc4ccc(CN5CCN(CCCNc6ccc(N7CCC(=O)NC7=O)cc6)CC5)cn4)ncc3F)cc2n1C(C)C` [Compound 107, 1-(4-((3-(4-((6-((5-fluoro-4-(4-fluoro-1-isopropyl-2-methyl-1H-benzo[d]imidazol-6-yl)pyrimidin-2-yl)amino)pyridin-3-yl)methyl)piperazin-1-yl)propyl)amino)phenyl)dihydro-pyrimidine-2,4 (1H,3H)-dione] gave a DC50 of under 50 nM and a Dmax of over 80%. In experiment [2], the DC50 was under 50 nM and the Dmax was over 80%. For the same compound, the IC50 in experiment [3] was under 50 nM.
In the case of `Cc1nc2c(F)cc(-c3nc(Nc4ccc(CN5CCN(CC6CCN(c7ccc(N8CCC(=O)NC8=O)cc7)CC6)CC5)cn4)ncc3F)cc2n1C(C)C` [Compound 108, 1-(4-(4-((4-((6-((5-fluoro-4-(4-fluoro-1-isopropyl-2-methyl-1H-benzo[d]imidazol-6-yl)pyrimidin-2-yl)amino)pyridin-3-yl)methyl)piperazin-1-yl)methyl)piperidin-1-yl)phenyl) dihydropyrimidine-2,4(1H,3H)-dione], the DC50 in experiment [1] and in experiment [2] was under 50 nM each time. In addition, the maximal degradation (Dmax) in experiment [1] and in experiment [2] was over 80% each time. For the same compound, in experiment [3], the IC50 was under 50 nM.
`Cc1nc2c(F)cc(-c3nc(Nc4ccc(CN5CCN(C6CCN(c7ccc(N8CCC(=O)NC8=O)cc7)CC6)CC5)cn4)ncc3F)cc2n1C(C)C` [Compound 109, 1-(4-(4-(4-((6-((5-fluoro-4-(4-fluoro-1-isopropyl-2-methyl-1H-benzo[d]imidazol-6-yl)pyrimidin-2-yl)amino)pyridin-3-yl)methyl)piperazin-1-yl)piperidin-1-yl)phenyl) dihydropyrimidine-2,4(1H,3H)-dione]: the DC50 in experiment [1] and in experiment [2] was under 50 nM each time. For the same compound, the Dmax in experiment [1] and in experiment [2] was over 80% in each case. Also, in experiment [3], the IC50 was under 50 nM.
In experiment [1], `Cc1nc2c(F)cc(-c3nc(Nc4ccc(CN5CCN(CC6CCCN(c7ccc(N8CCC(=O)NC8=O)cc7)C6)CC5)cn4)ncc3F)cc2n1C(C)C` (stereo not drawn) [Compound 110, 1-(4-(3-((4-((6-((5-fluoro-4-(4-fluoro-1-isopropyl-2-methyl-1H-benzo[d]imidazol-6-yl)pyrimidin-2-yl)amino)pyridin-3-yl)methyl)piperazin-1-yl)methyl)piperidin-1-yl)phenyl) dihydropyrimidine-2,4(1H,3H)-dione] had a DC50 of under 50 nM and a Dmax of over 80%. In experiment [2], this compound gave a DC50 of under 50 nM and a Dmax of over 80%. Further, the IC50 in experiment [3] was under 50 nM.
